Assays:
Assay in all cases: relative viability (nuclei count vs DMSO), 5 days (fraction); higher = more cells survive
EMC-BAC-2 = tested on: EMC-BAC-2
How it was run: (§1)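 Medians of duplicate plates are given as relative viability. That measure is the nuclei count in treated wells divided by the count in vehicle wells. Counts were taken on 4× images of lung cancer cell lines in 1536-well plates, 5 days after pin-tool dosing the day after seeding with one drug alone or a fixed anchor-drug dose plus five library-drug doses (not always all listed) in √10 steps.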

NCI-H2009 = tested on: NCI-H2009
How it was run: as §1

NCI-H727 = tested on: NCI-H727
How it was run: as §1

NCI-H1993 = tested on: NCI-H1993
How it was run: as §1

EPLC-272H = tested on: EPLC-272H
How it was run: as §1

NCI-H1915 = tested on: NCI-H1915
How it was run: as §1

LXF-289 = tested on: LXF-289
How it was run: as §1

NCI-H2023 = tested on: NCI-H2023
How it was run: as §1

NCI-H2347 = tested on: NCI-H2347
How it was run: as §1

NCI-H647 = tested on: NCI-H647
How it was run: as §1

HOP-62 = tested on: HOP-62
How it was run: as §1

NCI-H2126 = tested on: NCI-H2126
How it was run: as §1

LCLC-97TM1 = tested on: LCLC-97TM1
How it was run: as §1

NCI-H322M = tested on: NCI-H322M
How it was run: as §1

NCI-H2085 = tested on: NCI-H2085
How it was run: as §1

NCI-H1734 = tested on: NCI-H1734
How it was run: as §1

NCI-H1563 = tested on: NCI-H1563
How it was run: as §1

PC-14 = tested on: PC-14
How it was run: as §1

SW 1573 = tested on: SW 1573
How it was run: as §1

NCI-H661 = tested on: NCI-H661
How it was run: as §1

SK-LU-1 = tested on: SK-LU-1
How it was run: as §1

H3255 = tested on: H3255
How it was run: as §1

For `COc1nc(C)cnc1NS(=O)(=O)c1cccnc1-c1ccc(-c2nnco2)cc1` [Zibotentan] + N=C(N)NC(=N)NCCc1ccccc1 [Phenformin] (partner 250 µM), the relative viability (EMC-BAC-2; first compound 0.08 µM) was 0.541, the relative viability (EMC-BAC-2; first compound 0.8 µM) was 0.61 and the relative viability (EMC-BAC-2; first compound 2.53 µM) was 0.538. It also gave a relative viability (NCI-H2009; first compound 0.08 µM) of 0.494, a relative viability (NCI-H2009; first compound 0.253 µM) of 0.469 and a relative viability (NCI-H2009; first compound 0.8 µM) of 0.542. For the same molecule, the relative viability (NCI-H2009; first compound 2.53 µM) was 0.481, the relative viability (NCI-H727; first compound 0.08 µM) was 0.41 and the relative viability (NCI-H727; first compound 0.253 µM) was 0.519. For the same molecule, the relative viability (NCI-H727; first compound 0.8 µM) was 0.553, the relative viability (NCI-H727; first compound 2.53 µM) was 0.627 and the relative viability (NCI-H1993; first compound 0.08 µM) was 0.461. It also gave a relative viability (NCI-H1993; first compound 0.253 µM) of 0.541, a relative viability (NCI-H1993; first compound 0.8 µM) of 0.46 and a relative viability (NCI-H1993; first compound 2.53 µM) of 0.514. It also gave a relative viability (EPLC-272H; first compound 0.08 µM) of 0.287, a relative viability (EPLC-272H; first compound 0.253 µM) of 0.296 and a relative viability (EPLC-272H; first compound 0.8 µM) of 0.306. It also gave a relative viability (EPLC-272H; first compound 2.53 µM) of 0.306, a relative viability (NCI-H1915; first compound 0.08 µM) of 0.399 and a relative viability (NCI-H1915; first compound 0.253 µM) of 0.358. It also gave a relative viability (NCI-H1915; first compound 0.8 µM) of 0.377, a relative viability (NCI-H1915; first compound 2.53 µM) of 0.289 and a relative viability (LXF-289; first compound 0.08 µM) of 0.533. It also gave a relative viability (LXF-289; first compound 0.253 µM) of 0.489, a relative viability (LXF-289; first compound 0.8 µM) of 0.571 and a relative viability (LXF-289; first compound 2.53 µM) of 0.543. It also gave a relative viability (NCI-H2023; first compound 0.08 µM) of 0.407, a relative viability (NCI-H2023; first compound 0.253 µM) of 0.321 and a relative viability (NCI-H2023; first compound 0.8 µM) of 0.416. The relative viability (NCI-H2023; first compound 2.53 µM) was 0.451, the relative viability (NCI-H2347; first compound 0.253 µM) was 0.434 and the relative viability (NCI-H2347; first compound 0.8 µM) was 0.375. It also gave a relative viability (NCI-H2347; first compound 2.53 µM) of 0.444, a relative viability (NCI-H647; first compound 0.08 µM) of 0.472 and a relative viability (NCI-H647; first compound 0.253 µM) of 0.512. For the same molecule, the relative viability (NCI-H647; first compound 0.8 µM) was 0.37, the relative viability (NCI-H647; first compound 2.53 µM) was 0.531 and the relative viability (HOP-62; first compound 0.08 µM) was 0.746. It also gave a relative viability (HOP-62; first compound 0.253 µM) of 0.664, a relative viability (HOP-62; first compound 0.8 µM) of 0.747 and a relative viability (HOP-62; first compound 2.53 µM) of 0.715. The relative viability (NCI-H2126; first compound 0.08 µM) was 0.534, the relative viability (NCI-H2126; first compound 0.8 µM) was 0.518 and the relative viability (NCI-H2126; first compound 2.53 µM) was 0.575. It also gave a relative viability (LCLC-97TM1; first compound 0.08 µM) of 0.457, a relative viability (LCLC-97TM1; first compound 0.253 µM) of 0.449 and a relative viability (LCLC-97TM1; first compound 0.8 µM) of 0.464. It also gave a relative viability (LCLC-97TM1; first compound 2.53 µM) of 0.465, a relative viability (NCI-H322M; first compound 0.08 µM) of 0.824 and a relative viability (NCI-H322M; first compound 0.253 µM) of 0.589. The relative viability (NCI-H322M; first compound 0.8 µM) was 0.831, the relative viability (NCI-H322M; first compound 2.53 µM) was 0.816 and the relative viability (NCI-H2085; first compound 0.08 µM) was 0.73. The relative viability (NCI-H2085; first compound 0.253 µM) was 0.699, the relative viability (NCI-H2085; first compound 0.8 µM) was 0.803 and the relative viability (NCI-H2085; first compound 2.53 µM) was 0.814. For the same molecule, the relative viability (NCI-H1734; first compound 0.08 µM) was 0.361, the relative viability (NCI-H1734; first compound 0.253 µM) was 0.396 and the relative viability (NCI-H1734; first compound 0.8 µM) was 0.381. The relative viability (NCI-H1734; first compound 2.53 µM) was 0.492, the relative viability (NCI-H1563; first compound 0.08 µM) was 0.67 and the relative viability (NCI-H1563; first compound 0.8 µM) was 0.66. It also gave a relative viability (NCI-H1563; first compound 2.53 µM) of 0.643, a relative viability (PC-14; first compound 0.08 µM) of 0.692 and a relative viability (PC-14; first compound 0.253 µM) of 0.377. For the same molecule, the relative viability (PC-14; first compound 0.8 µM) was 0.66, the relative viability (PC-14; first compound 2.53 µM) was 0.601 and the relative viability (SW 1573; first compound 0.08 µM) was 0.397. It also gave a relative viability (SW 1573; first compound 0.8 µM) of 0.359, a relative viability (SW 1573; first compound 2.53 µM) of 0.334 and a relative viability (NCI-H661; first compound 0.08 µM) of 0.267. The relative viability (NCI-H661; first compound 0.253 µM) was 0.252, the relative viability (NCI-H661; first compound 0.8 µM) was 0.281 and the relative viability (NCI-H661; first compound 2.53 µM) was 0.296. For the same molecule, the relative viability (SK-LU-1; first compound 0.08 µM) was 0.53, the relative viability (SK-LU-1; first compound 0.253 µM) was 0.463 and the relative viability (SK-LU-1; first compound 0.8 µM) was 0.501. For the same molecule, the relative viability (SK-LU-1; first compound 2.53 µM) was 0.503, the relative viability (H3255; first compound 0.08 µM) was 0.386 and the relative viability (H3255; first compound 0.253 µM) was 0.326. For the same molecule, the relative viability (H3255; first compound 0.8 µM) was 0.307 and the relative viability (H3255; first compound 2.53 µM) was 0.354.

— the supplement of paper PMC10307832
